In US6534283B1, “Method for treatment and prevention of physiological shock” (The Regents of the University of California, priority 1999, dated 2003):

How the values were obtained:
[1] = tested on: serine protease; test: Serine protease activity of intestinal fluid during intestinal perfusion and splanchnic ischemia; type: in vivo, rat; settings: intestinal perfusion 0.2 mg/ml
Procedure: (§1) The small intestine of rats was perfused at a constant flow rate (4.0 ml/min) with 45 ml of rat intestinal fluid supplemented with 5 ml of 5% glucose (IF) or 50 ml of saline with 0.1% glucose (SAL) or with ANDG at a final concentration of 0.2 mg/ml. The perfusate was recirculated continuously throughout the entire procedure. After 15 min of intestinal perfusion, the animals were subjected to […]. of splanchnic ischemia, which was confirmed by cyanotic organ discoloration and loss of the pressure pulsation in the mesentery.
The process of shock was monitored by a number of methods in various tissues throughout the body. Intestinal fluid was analyzed for serine protease activity. One milliliter of circulating fluid in the intestine was collected from the reservoir before ischemia and 90 min after ischemia. […] After 90 min of ischemia, the serine protease activity levels in the IF, SAL, and ANGD groups were 5.6±2.3×10^3 units/ml, 3.3±2.3×10^3 units/ml, and 1.2±0.2×10^3 units/ml, respectively. Intestinal perfusion with ANGD kept the serine protease activity lower than in the other two groups (p<0.05, SAL vs. ANGD; p<0.01 ANGD vs. IF and SAL groups).

[2] = tested on: rats; test: Shock induced by bolus injection of pancreatic homogenate, with or without ANGD infusion; type: in vivo, rat; settings: one hour i.v. pretreatment 3.3 mg/kg body wt per hour, then pancreatic homogenate bolus
Procedure: Rats were cannulated via the femoral arteries and veins under general anesthesia (pentobarbital, 50 mg/kg i.m.) and saline, without or with ANGD, was infused to examine the response of the circulation after administration of pancreatic homogenate. The arterial catheter served to record mean arterial pressure (MAP) and heart rate. […] No heparin was injected other than that needed to maintain open catheters (10 U/ml Plasma-Lyte, Travenol Laboratory Inc., Deerfield, Ill.). After a one hour pretreatment, a bolus injection of filtered (0.78 μm vacuum filter, Millipore) stock pancreatic homogenate was administered (2 ml). The extent to which pancreatic homogenate induced hypotension and circulatory shock, both in the presence and absence of ANGD, was examined.

[3] = tested on: rats; test: Splanchnic ischemia/reperfusion shock with perfusion of the lumen of the small intestine; type: in vivo, rat
Procedure: as §1
Arterial and portal venous blood (0.3 ml each) were sampled before ischemia, after 90 min of ischemia, and 30, 60, and 120 min postreperfusion. The samples were analyzed for leukocyte count and activation based on crystal violet staining. In the preischemic period, the leukocyte counts were the same in all three groups. In the IF And SAL groups, the leukocyte count in arterial blood started to decrease after ischemia and reached its lowest value 120 min after reperfusion. […] Similarly, ANGD was able to inhibit the activation of circulating neutrophils (15.0±1.6%) as compared to both IF (23.3±1.0%, p<0.05) and SAL (25.0±1.6%, p<0.05) at 120 minutes post-perfusion.
Myeloperoxidase activity was used as a marker for assessment of leukocyte infiltration into the small intestine, liver, and lung. Tissue myeloperoxidase levels were determined by a spectrophotometric method. At 120 minutes of reperfusion, myeloperoxidase levels were increased in intestine (36.1±3.9 U/g to 309.3±51.0 U/g), liver (0.4±0.1 U/g to 2.6±0.3 U/g), and lung (29.0±4.4 U/g to 199.2±33.9 U/g). This is an early indicator of leukocyte infiltration and organ failure in shock.
Thickness of the intestinal mucosa was used as an indicator of damage to the intestine. A sample of small intestine was longitudinally dissected, fixed in 10% buffered formalin, and embedded in paraffin. Five-micrometer sections were made and stained with hematoxylin and eosin and examined at 200× magnification. Severity of intestinal injury was estimated by the length between the tip of the villi and the musculus mucosae, a measure of mucosal layer thickness. In each specimen, the measurement was made at 10 randomly selected locations and averaged. Intestinal perfusion of protease inhibitor served to maintain mucosal thickness and to reduce intestinal injury (IF 252.0±34.0 […]).
The level of edematous lung injury was assayed by a pulmonary wet/dry ratio. Lung lobes were harvested, wet weight was determined and samples were dried at 70° C. for 72 hours. The dried tissue was weighed, and the ratio of wet to dried weight was calculated. Edema was much greater in the IF (5.65±0.33) and SAL (4.88±0.39) groups as compared to the ANGD (3.66±0.27) group which was similar to non-shock controls.

[4] = tested on: Human neutrophils (PMNs); test: Neutrophil activation (pseudopod formation) by pancreatic homogenate prepared with protease inhibitors; type: cell-based; settings: for ability of the homogenate to stimulate neutrophil activation: pancreas homogenized in the presence of protease inhibitor
Procedure: The organs were immediately washed in cold 0.25 M sucrose solution, homogenized in Krebs-Henseleit solution (1:3 w/v), and the homogenate was diluted (1:2 v/v Krebs-Henseleit), following the protocol established by Glen and Lefer (Circ. Res., 1971). This homogenate served as the stock solution for all experiments. Aliquots were heated for 2.5 hours at 38° C. with mild stirring and the supernatant collected after centrifugation at 500 g for 10 min. Incubation of tissue homogenates at 38° C. promotes enzymatic activity and enhances production of the cellular activation factors.
Neutrophils were isolated from venous blood collected from healthy human volunteers in heparinized vacutainer tubes and stored at 4° C. Human neutrophils (PMNs) were used in these studies after it was shown in pilot studies that the rat organ extracts stimulated activation of both human and rat neutrophils to a similar degree.
Neutrophil isolation was carried out using gravity sedimentation to remove erythrocytes and centrifugation through a Percoll gradient. Isolated neutrophils were resuspended in PBS to achieve a count of 10^6 neutrophils/ml. 100 μl aliquots of suspended neutrophils were added to 100 μl of activating agent (e.g. tissue homogenate) or PBS as a control, and incubated for 10 minutes at 27° C. After incubation, 100 μl of 3% glutaraldehyde (Fisher Scientific, Fair Lawn, N.J.) was added to fix the cells. 100 μl of crystal violet in phosphate (pH: 7.4) buffer was added to label leukocyte nuclei for identification on wet mount preparations. Freely suspended neutrophils with pseudopodia were identified by their segmented nuclei and by the presence of cytoplasmic granules. One hundred neutrophils were counted per slide. Cells having pseudopod projections greater than about 1 μm were considered positive.
To determine if pancreatic homogenates could induce a “systemic response” in vitro, non-pancreatic tissues were incubated with substimulatory quantities of pancreatic homogenate (100 μl pancreatic homogenate/3 ml organ homogenate). […] As the pancreas produces a number of digestive enzymes, including proteases, a cocktail of trypsin and chymotrypsin was added to non-pancreatic tissue and the neutrophil activation assays were performed.

SMILES: N=C(N)c1ccc2cc(OC(=O)c3ccc(N=C(N)N)cc3)ccc2c1 [ANGD, 6-amidino-2napthyl p-guanidobenzoate dimethane-sulfate]
- serine protease activity level in the intestine ([1]; after 90 min of ischemia, IF 5.6±2.3×10^3, SAL 3.3±2.3×10^3): 1.2±0.2×10^3 units/ml
- serine protease activity level in the intestine ([1]; before ischemia, IF=5.8±1.8×10^3, SAL=2.0±0.9×10^3): 1.2±0.1×10^3 units/ml
- death within the 60 minute post-injection observation period [2]: none of these animals died
- time for MAP and heart rate to return to normal levels [2]: ≤ 20 min
- myeloperoxidase activity in liver ([3]; 120 minutes of reperfusion, without inhibitor 2.6±0.3 U/g): 1.0±0.1 U/g
- myeloperoxidase activity in lung ([3]; 120 minutes of reperfusion, without inhibitor 199.2±33.9 U/g): 87.0±13.4 U/g
- myeloperoxidase activity in intestine ([3]; 120 minutes of reperfusion, without inhibitor 309.3±51.0 U/g): 62.5±19.8 U/g
- activation of circulating neutrophils ([3]; 120 minutes post-perfusion, IF 23.3±1.0%, SAL 25.0±1.6%): 15.0±1.6%
- pulmonary wet/dry ratio (edematous lung injury) ([3]; IF 5.65±0.33, SAL 4.88±0.39): 3.66±0.27
- leukopenia (leukocyte count in arterial blood) ([3]; intestinal perfusion 0.2 mg/ml, after ischemia up to 120 min after reperfusion): completely ameliorated leukopenia
- mucosal thickness (tip of the villi to musculus mucosae) ([3]; small intestine, IF 252.0±34.0): 378 ± 38 µm
- neutrophil activation ([4]; pancreas homogenized in presence of inhibitor, untreated extract 59±10%): 9±12%
- ability of the homogenate to stimulate neutrophil activation [4]: significantly decreased

SMILES: CCOC(=O)c1ccc(OC(=O)CCCCCN=C(N)N)cc1.CS(=O)(=O)O [FOY, gabaxalate mesilate]
- ability of the homogenate to stimulate neutrophil activation [4]: significantly decreased

SMILES: O=S(=O)(F)Cc1ccccc1 [PMSF, phenylmethylsulfonylfluoride]
- ability of the homogenate to stimulate neutrophil activation [4]: significantly decreased
